Bounds are passed on as bounds.

Consider 16 compounds from patent EP2161266A1, “Benzofuran derivatives as orexin receptor antagonists” (EVOTEC Neurosciences GmbH, priority 2008, dated 2010).

The target of test [1] is T1, human Orexin-1 receptor (hOX1R) (Homo sapiens, UniProt O43613).
T1 construct: host or cells: CHO-K1
T1 sequence (O43613 1-425): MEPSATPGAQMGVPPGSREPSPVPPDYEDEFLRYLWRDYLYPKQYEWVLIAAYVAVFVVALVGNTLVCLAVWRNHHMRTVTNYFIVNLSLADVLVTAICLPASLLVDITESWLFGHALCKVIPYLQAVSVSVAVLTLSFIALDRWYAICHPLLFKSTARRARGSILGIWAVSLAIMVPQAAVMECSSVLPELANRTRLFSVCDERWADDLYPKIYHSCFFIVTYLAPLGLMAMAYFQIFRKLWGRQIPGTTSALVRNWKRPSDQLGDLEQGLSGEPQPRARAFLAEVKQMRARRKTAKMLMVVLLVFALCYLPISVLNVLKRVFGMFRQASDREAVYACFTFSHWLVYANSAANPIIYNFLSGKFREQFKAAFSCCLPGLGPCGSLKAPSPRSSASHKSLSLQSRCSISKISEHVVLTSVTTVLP
As to the kind of experiment: Ca2+-flux assay for IC50 determination in CHO-hOX1R cells (Orexin-A stimulated). It counts as cell-based. The following applies: 5nM Orexin-A agonist, fluo-4 fluorescence, compounds 1.28nM to 20µM, triplicates, read-out: 0X1. An excerpt: A CHO-K1 cell line stably expressing human Orexin-1 receptor (hOX1R, coding sequence of AF041243) was obtained from Euroscreen/PerkinElmer (CHO-hOX1R, ES-330-C). A plasmid containing the human Orexin-2 receptor (hOX2R) cDNA was purchased from RZPD (RZPDo834A1045-pT-REx-DEST30). The human Orexin-2 receptor coding region was amplified in a gradient PCR reaction using hOX2Rfor (5' ccaggatccgc […]) and hOX2Rrev (5' […]) primers containing restriction sites for the restriction enzymes BamHI and NotI. The PCR reaction was performed with the LightCycler system from Roche Applied Science. The amplified DNA fragment was digested with restriction enzymes BamHI and Notl (Fermentas) and subsequently cloned into the BamHI/NotI sites of the pFB-Neo vector (Stratagene) thereby generating plasmid pFB-Neo-hOX2R. For a stably expressing CHO-hOX2R cell line viral transduction of CHO-K1 cells were performed by using the pFB-Neo-hOX2R plasmid and the pVPack vector system from Stratagene according to the manufacturer's manual. Cells expressing the hOX2 receptor were selected using G418 at a final concentration of 500µg/ml and single cell clones were produced by limited dilution cloning.
CHO-hOX1R cells were grown in HAM F12 Nutrient Mixture (Sigma, N6658), 10%Fetal Bovine Serum (Sigma, F9665), 1% Penstrep (Sigma, p4333) and […] G418 (Sigma, A1720). CHO-hOX2R cells were grown in DMEM F12 medium (Sigma, D8437) supplemented with 10%Fetal Bovine Serum (Sigma, F9665), 1% Penstrep (Sigma, p4333) and […] G418 (Sigma, A1720). Cells were maintained under 5% CO2 atmosphere at 37°C. Cells were passaged every 2-3 days.
CHO-hOX1R and CHO-hOX2R cells were seeded at a density of 7500 cells per well into black, 384 well Costar Cellbind plates and cultured overnight in the appropriate cell culture medium as described above without G418 selection. The next day the medium was removed and the cells were incubated for 1.5hrs at 37°C in fluo-4, AM dye solution [2µM fluo-4,AM (Molecular Probes; F-14202, Lot#28C1-12) in 5mM probenecid (Sigma, P-8761, Lot# 121K1662), 0.1% Bovine Serum Albumin (BSA, MERCK, 1.12018.0100), 1xHBSS (Invitrogen, 14025-050), 20mM HEPES (Invitrogen,. 15630-056)]. […] All compound concentrations were measured in triplicates. Subsequently, agonist solution (5nM Orexin-A, TOCRIS, 1455) in 5mM probenecid, 0.1% BSA, 1xHBSS, 20mM HEPES was added during incubation of the plate at 37°C in the fluorescence plate reader (FlexStation, Molecular Devices). Fluorescence was measured for 0-60 seconds per well at an excitation of 485nm and emission of 538nm. For EC50 determination of Orexin-A the cells were incubated as described above for 20min at 37°C in probenecid buffer (5mM probenecid, 0.1% BSA, 1xHBSS, 20mM HEPES, 1%DMSO) without compound solution. Agonist injection occurred in the fluorescence plate reader (FlexStation, Molecular Devices) at different concentrations ranging from 0-100nM in 5mM probenecid, 0.1% BSA, 1xHBSS, 20mM HEPES. Detection of fluorescence was as described above.

The next test addresses T2, OX1 (Mus musculus, UniProt P58307).
T2 sequence (P58307 1-416): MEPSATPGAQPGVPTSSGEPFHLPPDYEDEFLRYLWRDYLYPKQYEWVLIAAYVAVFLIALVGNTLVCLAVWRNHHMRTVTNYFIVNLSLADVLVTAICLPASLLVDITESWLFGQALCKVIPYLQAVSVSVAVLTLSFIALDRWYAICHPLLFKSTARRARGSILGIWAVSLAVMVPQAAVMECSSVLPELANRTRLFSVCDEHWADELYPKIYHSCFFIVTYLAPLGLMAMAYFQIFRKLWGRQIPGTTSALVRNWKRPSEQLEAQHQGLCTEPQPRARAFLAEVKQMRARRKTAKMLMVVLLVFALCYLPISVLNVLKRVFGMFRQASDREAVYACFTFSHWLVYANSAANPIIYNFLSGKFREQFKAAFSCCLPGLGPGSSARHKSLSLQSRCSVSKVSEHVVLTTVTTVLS
As to conditions: pretreatment before naloxone-precipitated withdrawal; Sharf et al, Biol Psychiatry, 2008; cited from earlier work.

Consider `CCOc1ccc(NC(=O)c2oc3ccccc3c2C)cc1` [Example 9, N-(4-Ethoxyphenyl)-3-methyl-2-benzofurancarboxamide], for which the IC50 in test [1] was less than 3000 nM. Still for that read-out and setting: the same measure for `CCN(CC)c1ccc(NC(=O)c2oc3ccccc3c2COC)cc1` [Example 4, N-[4-(Diethylamino)phenyl]-3-(methoxymethyl)-2-benzofurancarboxamide]: less than 1000 nM; for `CCN(CC)c1ccc(NC(=O)c2cc3ccccc3o2)cc1` [Example 13, N-[4-(Diethylamino)phenyl]-2-benzofurancarboxamide]: less than 1000 nM; for “N-(4-Thioanisolyl)-3-methyl-2-benzofurancarboxamide [Example 11]”: less than 1000 nM. For the compound `CCN(CC)c1ccc(NC(=O)c2oc3ccccc3c2OC)cc1` [Example 12, N-[4-(Diethylamino)phenyl]-3-methoxy-2-benzofurancarboxamide], in test [1], the IC50 is less than 300 nM. As to `Cc1nc2ccc(NC(=O)Nc3ccnc4cccnc34)cc2o1` [SB-334867], the withdrawal symptoms entry at OX1 is “striking reduction in several withdrawal symptoms”. As for `Cc1c(C(=O)Nc2ccc3c(c2)OCCCO3)oc2ccccc12` [Example 8, N-(3,4-dihydro-2H-1,5-benzodioxepin-7-yl)-3-methyl-2-benzofurancarboxamide], the IC50 in test [1] was less than 3000 nM.

Turning to `Cc1nc2ccc(NC(=O)c3oc4ccccc4c3C)cc2o1` [Example 3, N-(2-Methyl-6-benzoxazolyl)-3-methyl-2-benzofurancarboxamide], the IC50 in test [1] is less than 300 nM. On the same count and under the same terms, the same measure for `COc1ccc(NC(=O)c2oc3ccccc3c2C)cc1Cl` [Example 7, N-(3-Chloro-4-methoxyphenyl)-3-methyl-2-benzofurancarboxamide]: less than 3000 nM. On the same count and under the same terms, the same measure for `CCc1c(C(=O)Nc2ccc(N(CC)CC)cc2)oc2ccccc12` [Example 5, N-[4-(Diethylamino)phenyl]-3-ethyl-2-benzofurancarboxamide]: less than 300 nM; for `CCN(CC)c1ccc(NC(=O)c2oc3ccccc3c2NC(C)=O)cc1` [Example 15, N-[4-(Diethylamino)phenyl]-3-(acetylamino)-2-benzofurancarboxamide]: less than 3000 nM. Same read-out and setting: with `CCN(CC)c1ccc(NC(=O)c2oc3ccccc3c2C)cc1` [Example 2, N-[4-(Diethylamino)phenyl]-3-methyl-2-benzofurancarboxamide] the figure was less than 300 nM; with `CCc1c(C(=O)Nc2ccc3nc(C)oc3c2)oc2ccccc12` [Example 6, N-(2-Methyl-6-benzoxazolyl)-3-ethyl-2-benzofurancarboxamide], less than 300 nM; with `Cc1nc2ccc(NC(=O)c3oc4ccccc4c3C)cc2s1` [Example 14, N-(2-Methyl-6-benzothiazolyl)-3-methyl-2-benzofurancarboxamide], less than 1000 nM. Take `Cc1c(C(=O)Nc2ccc3c(c2)OCCO3)oc2ccccc12` [Example 1, N-(2,3-Dihydro-1,4-benzodioxin-6-yl)-3-methyl-2-benzofurancarboxamide]: the IC50 in test [1] was less than 3000 nM. On the same count and under the same terms, with `Cc1c(C(=O)Nc2ccc3c(ccn3C)c2)oc2ccccc12` [Example 10, N-(1-Methyl-1H-indol-5-yl)-3-methyl-2-benzofurancarboxamide] the figure was less than 1000 nM.
